Here are results for 12 compounds from ChEMBL document CHEMBL5344423, “Alstoboonine, an Ulean-Type Indole Alkaloid from Alstonia boonei Leaves” (J Nat Prod, 2024).

A short description of data set [1]: Cytotoxicity against human MCF7 cells assessed as reduction in cell viability after 48 hrs by MTT assay. In kind it is toxicity, cell-based. A general note: Tetrazolium assays rely on reduction of a dye to a coloured formazan, in cell work by metabolically active cells.
Data set [2] concerns Caenorhabditis elegans. Put plainly: Anthelmintic activity against Caenorhabditis elegans N2 Bristol assessed as lethality. In kind it is functional.
Data set [3] has as its system Caenorhabditis elegans. The experiment in a line: Anthelmintic activity against Caenorhabditis elegans N2 Bristol assessed as mortality at 10 mM relative to control. The format is functional.
A further data set concerns Trypanosoma cruzi. The experiment in a line: Antiprotozoal activity against Trypanosoma cruzi Tulahuen C4 amastigotes measured after 96 hrs by microplate reader analysis. The format is functional, organism-based. Particulars: Tulahuen C4, 96 h.
A further data set has as its system Trypanosoma brucei. The experiment in a line: Antiprotozoal activity against bloodstream form Trypanosoma brucei STIB 900 trypomastigotes […] by microplate reader analysis. In kind it is functional, organism-based.
The next data set relates to Plasmodium falciparum. Put plainly: Antiprotozoal activity against Plasmodium falciparum NF54 intraerythrocytic forms incubated for 48 hrs by 3H-hypoxanthine incorporation assay. The format is functional, organism-based.
For a further data set, the system named is Leishmania donovani. The experiment in a line: Antiprotozoal activity against Leishmania donovani MHOM-ET-67/L82 amastigotes incubated for 72 hrs by microplate reader analysis. The format is functional, organism-based. Particulars: MHOM-ET-67/L82, 72 h.
A short description of data set [4]: Cytotoxicity against rat L6 cells incubated for 72 hrs by Resazurin-dye based assay. In kind it is toxicity, cell-based.
Data set [5] relates to Caenorhabditis elegans. Put plainly: Anthelmintic activity against Caenorhabditis elegans N2 Bristol assessed as lethality on young adult worms at 10 mM incubated for 48 hrs. In kind it is functional, organism-based.
Data set [6] relates to Caenorhabditis elegans. Put plainly: Anthelmintic activity against Caenorhabditis elegans N2 Bristol assessed as mortality at 40 mM relative to control.

Converted amounts (≈) assume the structure as drawn. The source made the active and inactive calls. No cut-off for these calls is given here.

By IC50 is commonly meant the concentration at which inhibition is half-maximal. As to `COC(=O)C1=C2Nc3c(OC)cccc3[C@@]23CCN2C[C@@H](C(C)=O)[C@@H]1C[C@H]23`, the IC50 at 48 h in data set [1] was more than 100 µM.

As usually defined, the LC50 is the concentration that kills 50% of the test population. Usually mortality stands for the percentage killed. On to `COC(=O)/C1=C/OC2=Nc3c(OC)cccc3[C@@]23CCN2C[C@@H]([C@H](C)O)[C@@H]1CC23`, for which, in [1], the concentration for half-maximal inhibition (IC50) at 48 h is more than 100 µM. The LC50 with Caenorhabditis elegans [2] was 400 µM. In addition, in the data set with Caenorhabditis elegans [3], the mortality at 10000 µM turned out to be 100%. On to `C=CC12OC[C@@]3(C(=O)OC)c4[nH]c5ccccc5c4C1NCCC23O`, for which the IC50 in the data set with Trypanosoma cruzi was more than 100 µg/mL; in the data set with Trypanosoma brucei it was 20 µg/mL (≈ 58.8 µM); with Plasmodium falciparum, 2.4 µg/mL (≈ 7.05 µM); with Leishmania donovani, 75 µg/mL (≈ 220 µM). Moreover, the IC50 at 48 h in [1] is more than 100 µM. Besides, in data set [4], the IC50 at 72 h came out at 50 µg/mL (≈ 147 µM). `C/C=C1/CN2CC[C@@]34C(=Nc5c(OC)cccc53)O/C=C(/C(=O)OC)[C@H]1CC24`: the result with Caenorhabditis elegans [5] was inactive. Moreover, the IC50 at 48 h in [1] is more than 100 µM.

In the data set with Leishmania donovani, `CCCCCCCCCCCCCCCCOP(=O)([O-])OCC[N+](C)(C)C` [MILTEFOSINE] returned an IC50 of 0.26 µg/mL (≈ 0.638 µM).

As for `COC(=O)[C@@]1(c2cc3ccccc3[nH]2)COC[C@H]2O[C@]23CN(C)CC[C@@H]31`, in data set [1], the IC50 at 48 h was more than 100 µM. Turning to `C=C[C@@]12CN3CC[C@]1(O)[C@@](C(=O)OC)(CO2)c1[nH]c2ccccc2c1C3`, the outcome with Caenorhabditis elegans [5] was inactive. In addition, the IC50 at 48 h in data set [1] is 26 µM. Compound `O=C(Cn1ccnc1[N+](=O)[O-])NCc1ccccc1` [BENZNIDAZOLE] showed an IC50 with Trypanosoma cruzi of 0.69 µg/mL (≈ 2.65 µM). Consider `COC(=O)/C1=C/OC2=Nc3c(OC)cccc3[C@@]23CCN2C[C@@H](C(C)=O)[C@@H]1CC23`, for which the IC50 at 48 h in data set [1] was more than 100 µM. Take `COC(=O)[C@@]1(c2cc3ccccc3[nH]2)COCC=C2CN(C)CC[C@@H]21` [6,7-SECO-ANGUSTILOBINE B]: the IC50 at 48 h in [1] was more than 100 µM. With `c1ccc([C@H]2CN3CCSC3=N2)cc1` [LEVAMISOLE], the mortality at 40000 µM with Caenorhabditis elegans [6] is 71%. In the case of `COC(=O)C1=C2Nc3c(OC)cccc3[C@@]23CCN2C[C@@H]([C@H](C)O)[C@@H]1C[C@H]23`, the result in the data set with Caenorhabditis elegans [5] was inactive. In data set [1], the IC50 at 48 h is more than 100 µM.
